Assay results published in PubChem BioAssay AID330 (DTP/NCI, 2004).
“And” between values parts separate entries of the source, which are not always exact repeats. Identical values can stand only once. Toxic doses and inconclusive results are not listed. Rule for the calls: active = survival T/C of 150% or more; inactive = T/C below 125% in these data. Peptide text beside a SMILES is read from it. * marks the point of attachment. Trt = c1ccc(C(c2ccccc2)(c2ccccc2)*)cc1; Benzhydryl = c1ccc(C(c2ccccc2)*)cc1; Cbz = O=C(OCc1ccccc1)*; OtBu = CC(C)(C)O*

Test system: P388 leukemia ip, CD2F1 mice, survival T/C
Experiment: NCI In Vivo Anticancer Drug Screen. Data for tumor model P388 Leukemia (intraperitoneal) in CD2F1 (CDF1) mice
Settings: endpoint: median survival time, higher = longer survival
Summary of the method: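 Mice carrying the transplanted tumor received test compound or vehicle. Survival was recorded in each group, and the value is the treated-group measurement divided by that of the vehicle-treated control group.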

[1] = dose: 50.0 mg/kg/injection, schedule: Q01DX005 (ip), vehicle: Klucel (hydroxypropylcellulose) (HPC)
[2] = dose: 100.0 mg/kg/injection, schedule: Q01DX005 (ip), vehicle: Klucel (hydroxypropylcellulose) (HPC)
[3] = dose: 200.0 mg/kg/injection, schedule: Q01DX005 (ip), vehicle: Klucel (hydroxypropylcellulose) (HPC)
[4] = dose: 100.0 mg/kg/injection, schedule: Q04DX003 (ip), vehicle: saline
[5] = dose: 200.0 mg/kg/injection, schedule: Q04DX003 (ip), vehicle: saline
[6] = dose: 400.0 mg/kg/injection, schedule: Q04DX003 (ip), vehicle: saline
[7] = dose: 60.0 mg/kg/injection, schedule: Q01DX005 (ip), vehicle: Klucel (hydroxypropylcellulose) (HPC)
[8] = dose: 120.0 mg/kg/injection, schedule: Q01DX005 (ip), vehicle: Klucel (hydroxypropylcellulose) (HPC)
[9] = dose: 60.0 mg/kg/injection, schedule: Q01DX005 (ip), vehicle: saline with Tween-80
[10] = dose: 120.0 mg/kg/injection, schedule: Q01DX005 (ip), vehicle: saline with Tween-80
[11] = dose: 240.0 mg/kg/injection, schedule: Q01DX005 (ip), vehicle: saline with Tween-80

Measured: T/C

N#C/C(C(=S)S)=C(/O)c1ccccc1
inactive: dose: 25.0 mg/kg/injection, schedule: Q01DX009 (ip), vehicle: saline sonified 104 % of control | dose: 50.0 mg/kg/injection, schedule: Q01DX009 (ip), vehicle: saline sonified 109 % of control | dose: 100.0 mg/kg/injection, schedule: Q01DX009 (ip), vehicle: saline sonified 100 % of control

O=C(c1ccncc1)N(CO)N(Cn1c(=O)sc2ccccc21)Cn1c(=O)sc2ccccc21
inactive: dose: 6.25 mg/kg/injection, schedule: Q01DX009 (ip), vehicle: Klucel (hydroxypropylcellulose) (HPC) 101 % of control | dose: 12.5 mg/kg/injection, schedule: Q01DX009 (ip), vehicle: Klucel (hydroxypropylcellulose) (HPC) 94 % of control | dose: 25.0 mg/kg/injection, schedule: Q01DX009 (ip), vehicle: Klucel (hydroxypropylcellulose) (HPC) 92 % of control

CC(C)(C)OC(=O)C1CCON1C1OC(C(O)CO)C2OC(C)(C)OC21 (configuration not stated)
inactive: [1] 100 % of control | [2] 100 % of control and 98 % of control | [3] 95 % of control and 104 % of control

COc1cccc(C(c2cc3c(cc2O)OCO3)N2CCN(C(c3cc4c(cc3O)OCO4)c3cccc(OC)c3O)CC2)c1O (configuration not stated)
inactive: dose: 60.0 mg/kg/injection, schedule: Q01DX005 (ip), vehicle: saline 98 % of control | dose: 120.0 mg/kg/injection, schedule: Q01DX005 (ip), vehicle: saline 98 % of control | dose: 240.0 mg/kg/injection, schedule: Q01DX005 (ip), vehicle: saline 100 % of control

O=C([O][Hg][C](F)(F)F)C(F)(F)F
inactive: dose: 1.56 mg/kg/injection, schedule: Q04DX003 (ip), vehicle: saline 104 % of control | dose: 3.13 mg/kg/injection, schedule: Q04DX003 (ip), vehicle: saline 101 % of control

CC(N=Cc1cccs1)c1ccccc1 (configuration not stated)
inactive: [4] 98 % of control | [5] 95 % of control | [6] 99 % of control

CC(C)(C)OC(=O)CNC(=O)C(Cc1ccccc1)NC(=O)C(CSC(c1ccccc1)(c1ccccc1)c1ccccc1)NC(=O)CNC(=O)C(Cc1ccccc1)NC(=O)CNC(=O)C(CSC(c1ccccc1)c1ccccc1)NC(=O)C(CSC(c1ccccc1)(c1ccccc1)c1ccccc1)NC(=O)OCc1ccccc1 (configuration not stated) (Cbz-C(Trt)C(Benzhydryl)GFGC(Trt)FG-OtBu; configuration not given here)
inactive: [7] 100 % of control | [8] 98 % of control

CCC/C(C)=N/NC(=S)SC
inactive: dose: 6.25 mg/kg/injection, schedule: Q01DX009 (ip), vehicle: saline 100 % of control | dose: 12.5 mg/kg/injection, schedule: Q01DX009 (ip), vehicle: saline 98 % of control | dose: 25.0 mg/kg/injection, schedule: Q01DX009 (ip), vehicle: saline 98 % of control

COc1cc(/C=C2/C(=O)N(c3ccccc3)N=C2C)cc(OC)c1OC
inactive: [7] 108 % of control | [8] 104 % of control | dose: 240.0 mg/kg/injection, schedule: Q01DX005 (ip), vehicle: Klucel (hydroxypropylcellulose) (HPC) 105 % of control

C(#CP(C#Cc1ccccc1)C#Cc1ccccc1)c1ccccc1
inactive: dose: 50.0 mg/kg/injection, schedule: Q01DX009 (ip), vehicle: saline with Tween-80 103 % of control | dose: 100.0 mg/kg/injection, schedule: Q01DX009 (ip), vehicle: saline with Tween-80 92 % of control | dose: 200.0 mg/kg/injection, schedule: Q01DX009 (ip), vehicle: saline with Tween-80 94 % of control | dose: 400.0 mg/kg/injection, schedule: Q01DX009 (ip), vehicle: saline with Tween-80 86 % of control

CC(C)[C@@H]1CC[C@@H](C)C[C@H]1N
inactive: dose: 12.5 mg/kg/injection, schedule: Q01DX005 (ip), vehicle: saline 107 % of control | dose: 25.0 mg/kg/injection, schedule: Q01DX005 (ip), vehicle: saline 98 % of control | dose: 50.0 mg/kg/injection, schedule: Q01DX005 (ip), vehicle: saline with Tween-80 113 % of control | dose: 50.0 mg/kg/injection, schedule: Q01DX005 (ip), vehicle: saline 100 % of control

Nc1ncnc2c1ncn2C1OC(COC2C(CO)OC(OC(C(=O)O)C(O)C(OP(=O)(O)O)C(O)C(=O)O)C(O)C2O)C(O)C1O (configuration not stated)
inactive: dose: 0.25 mg/kg/injection, schedule: Q01DX009 (ip), vehicle: saline 96 % of control | dose: 0.5 mg/kg/injection, schedule: Q01DX009 (ip), vehicle: saline 105 % of control | dose: 1.0 mg/kg/injection, schedule: Q01DX009 (ip), vehicle: saline 96 % of control

CCN(CC)CCSCCCNc1cc(C)nc2c1ccc1c2ccc2c(NCCCSCCN(CC)CC)cc(C)nc21
inactive: dose: 1.56 mg/kg/injection, schedule: Q01DX009 (ip), vehicle: distilled water + Tween-80 100 % of control | dose: 3.12 mg/kg/injection, schedule: Q01DX009 (ip), vehicle: distilled water + Tween-80 102 % of control | dose: 6.25 mg/kg/injection, schedule: Q01DX009 (ip), vehicle: distilled water + Tween-80 104 % of control | dose: 12.5 mg/kg/injection, schedule: Q01DX009 (ip), vehicle: distilled water + Tween-80 100 % of control

CN1CSC(=S)NCCNC(=S)SC1
inactive: [1] 87 % of control | [2] 94 % of control | [3] 87 % of control

CNC(=O)Oc1ccc(OC2OC(CO)C(O)C(O)C2O)c2ccccc12 (configuration not stated)
inactive: dose: 100.0 mg/kg/injection, schedule: Q01DX001 (ip), vehicle: saline 101 % of control | dose: 200.0 mg/kg/injection, schedule: Q01DX001 (ip), vehicle: saline 104 % of control | dose: 400.0 mg/kg/injection, schedule: Q01DX001 (ip), vehicle: saline 103 % of control

NC(Cc1ccccc1)C(=O)NC(Cc1ccccc1)C(=O)O (stereo not drawn) (H-Phe-Phe-OH; configuration not given here)
inactive: dose: 50.0 mg/kg/injection, schedule: Q01DX009 (ip), vehicle: saline 96 % of control | dose: 100.0 mg/kg/injection, schedule: Q01DX009 (ip), vehicle: saline 99 % of control | dose: 200.0 mg/kg/injection, schedule: Q01DX009 (ip), vehicle: saline 94 % of control

CC(=O)N=c1sccn1CC(O)c1ccccc1 (configuration not stated)
inactive: dose: 50.0 mg/kg/injection, schedule: Q01DX009 (ip), vehicle: Klucel (hydroxypropylcellulose) (HPC) 105 % of control | dose: 100.0 mg/kg/injection, schedule: Q01DX009 (ip), vehicle: Klucel (hydroxypropylcellulose) (HPC) 99 % of control | dose: 200.0 mg/kg/injection, schedule: Q01DX001 (ip), vehicle: Klucel (hydroxypropylcellulose) (HPC) 118 % of control | dose: 200.0 mg/kg/injection, schedule: Q01DX009 (ip), vehicle: Klucel (hydroxypropylcellulose) (HPC) 108 % of control | dose: 400.0 mg/kg/injection, schedule: Q01DX001 (ip), vehicle: Klucel (hydroxypropylcellulose) (HPC) 100 % of control

O=C1CCC(C(=O)O)N1 (configuration not stated)
inactive: [4] 95 % of control | [5] 97 % of control | [6] 94 % of control

C=C1C2CCC3C4(C)CC(OC5OC(CO)C(OS(=O)(=O)O)C(OS(=O)(=O)O)C5OC(=O)CC(C)C)CC(C(=O)O)(C(=O)O)C4CCC3(C2)C1O (configuration not stated)
inactive: dose: 1.25 mg/kg/injection, schedule: Q01DX009 (ip), vehicle: saline 117 % of control | dose: 2.5 mg/kg/injection, schedule: Q01DX009 (ip), vehicle: saline 117 % of control | dose: 5.0 mg/kg/injection, schedule: Q01DX009 (ip), vehicle: saline 114 % of control

Oc1cc2c(cc1C(c1ccc3c(c1)OCO3)n1ccnc1)OCO2 (configuration not stated)
inactive: [9] 108 % of control | [10] 98 % of control | [11] 94 % of control

CNC(=O)OCC1=C(COC(=O)NC)C(=O)c2ccccc2C1=O
inactive: dose: 6.25 mg/kg/injection, schedule: Q01DX005 (ip), vehicle: Klucel (hydroxypropylcellulose) (HPC) 96 % of control | dose: 12.5 mg/kg/injection, schedule: Q01DX005 (ip), vehicle: Klucel (hydroxypropylcellulose) (HPC) 105 % of control | dose: 25.0 mg/kg/injection, schedule: Q01DX005 (ip), vehicle: Klucel (hydroxypropylcellulose) (HPC) 112 % of control

CCOC(=O)CCCCCO[Si](c1ccccc1)(c1ccccc1)C(C)(C)C
inactive: [9] 110 % of control | [10] 99 % of control | [11] 88 % of control

Clc1cc(Cl)c2n[se]nc2n1
inactive: dose: 25.0 mg/kg/injection, schedule: Q04DX002 (ip), vehicle: saline 100 % of control | dose: 50.0 mg/kg/injection, schedule: Q04DX002 (ip), vehicle: saline 106 % of control | dose: 100.0 mg/kg/injection, schedule: Q04DX002 (ip), vehicle: saline 116 % of control and 123 % of control
